PubChem BioAssay (NCI)
Where “and” joins values, the source holds several entries; their conditions need not be identical. Equal values may be shown once.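 Protocol summary: plate cells (96-well), add compound at 5 concentrations, incubate 48 h, interpolate endpoints linearly. GI50 is the concentration that inhibits growth by half. Definition used: TGI = concentration required for complete inhibition of growth.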

Columns and labels:
Test in all cases: DTP human tumour cell line panel, 48 h
BT-549 breast = system: BT-549 breast
T-47D breast = system: T-47D breast
MDA-MB-231 breast = system: MDA-MB-231 breast
MCF7 breast = system: MCF7 breast

SMILES | GI50 (BT-549 breast) | TGI (BT-549 breast) | GI50 (T-47D breast) | TGI (T-47D breast) | GI50 (MDA-MB-231 breast) | TGI (MDA-MB-231 breast) | GI50 (MCF7 breast) | TGI (MCF7 breast)
CNCCCn1cc(C2=C(c3cn(C)c4ccccc34)C(=O)NC2=O)c2ccccc21 | 4.81 µM | 8.83 µM | 5.66 µM | 15.1 µM | 5.32 µM | 15.1 µM | 2.74 µM | 6.93 µM
Clc1ccc2c(NCCCNc3nccc(Nc4ccc(Br)cc4)n3)ccnc2c1 | 1.68 µM | 3.4 µM | – | – | 1.79 µM | 3.47 µM | 1.39 µM | 2.94 µM
O=C(Nc1ccc(OS(=O)(=O)c2ccccc2)cc1)C12CC3CC(CC(C3)C1)C2 | 3.24 µM | > 100 µM | 3.57 µM | > 100 µM | 3.79 µM | > 100 µM | 3.26 µM | > 100 µM
C[As](C)SC1OC(CO)C(O)C1O (centres undefined) | 0.628 µM | 3.21 µM | 3.21 µM | > 100 µM | 0.725 µM | 3.69 µM | 0.324 µM | 1.3 µM
CC1OC2CC(=O)OC2C2=C1C(=O)c1c(O)cccc1C2=O (centres undefined) | 0.177 µM | 0.368 µM | 0.106 µM | 0.351 µM | 0.0684 µM | 0.334 µM | 0.0183 µM | 0.0581 µM
CCC[CH2][Sn]([CH2]CCC)([CH2]CCC)[O]C(=O)CC | 0.15 µM | 0.344 µM | 0.166 µM | 0.385 µM | 0.144 µM | 0.343 µM | – | –
O=C(OCc1ccc2cccc(O)c2n1)N1CCN(C(=O)c2cc3cc(F)ccc3[nH]2)CC1 | 1 µM | 2.21 µM | – | – | 0.966 µM | 2.23 µM | – | –
COc1ccc(C(=O)c2cc(OC)c(C)c(OC)c2)cc1OC(=O)CCl | 0.395 µM | 10.3 µM | 3.26 µM | > 79 µM | 0.353 µM | 18.6 µM | 0.361 µM | > 100 µM
CCOc1nc(-c2ccccc2)cc2c(O)c(-c3nnco3)[nH]c(=O)c12 | 3.23 µM | > 100 µM | 0.251 µM | 9.93 µM | 1.66 µM | > 29.8 µM | 0.507 µM | > 100 µM
Cc1c2cccnc2c(C)c2c1c1cc(CO)ccc1n2C | 3.42 µM | 20.1 µM | 0.989 µM | 4.97 µM | 2.61 µM | 13.2 µM | 0.501 µM | 12.7 µM
CCOC(=O)/C=C/C(C(=O)/C=C/c1ccc(OC2CCCCO2)c(OC)c1)=C(O)\C=C\c1ccc(OC2CCCCO2)c(OC)c1 (centres undefined) | 5.18 µM | 28.4 µM | 15.1 µM | 60.3 µM | 2.56 µM | 6.73 µM | 4.42 µM | 36.2 µM
COc1ccc2c(c1)C(C)Cc1c(Cl)ncnc1N2C (centres undefined) | 0.433 µM | 18.4 µM | 2.02 µM | 20.5 µM | 0.365 µM | 2.35 µM | 0.328 µM | > 21.9 µM
COc1ccc2c(c1)CCC1C2CC[C@@]2(C)C1CC1=CC(COC(C)=O)C3C(=O)c4ccccc4C(=O)C3C12 (some centres undefined) | > 100 µM | > 100 µM | 90.6 µM | > 100 µM | 52.4 µM | > 100 µM | > 100 µM | > 100 µM
CNCCNc1c2c(c(NCCNC)c3c(CN(C)C)c[nH]c13)C(=O)c1ccccc1C2=O | 6.04 µM | 14.4 µM | 32 µM | > 57.1 µM | 0.486 µM | 8.31 µM | 0.922 µM | 6.7 µM
COc1ncnc(C2CC2)c1-c1ncc2cnn(Cc3ccc(-c4nc(C(F)(F)F)cn4C(C)C)cc3)c2n1 | 21 µM | 80.5 µM | 10.6 µM | 85.2 µM | 22.9 µM | > 100 µM | 17.3 µM | 57.4 µM
CC(=O)OC1Oc2ccccc2-c2oc(=O)c(-c3cc(=O)oc4cc(O)ccc34)cc21 (centres undefined) | 15.3 µM | 41.4 µM | 12.1 µM | 48.4 µM | 24.9 µM | 81.5 µM | 29.9 µM | > 100 µM
CC[C@]12C=CCN3CC[C@@]4(c5ccc(OC)cc5N(C)[C@H]4[C@@](O)(C(=O)OC)[C@@H]1OC(=O)CCC[P+](c1ccccc1)(c1ccccc1)c1ccccc1)[C@@H]32 | 0.284 µM and 0.234 µM | 1.86 µM and 1.6 µM | 0.29 µM and 0.224 µM | 6.56 µM and 0.977 µM | 0.467 µM and 0.525 µM | 1.85 µM and 2.25 µM | 0.254 µM and 0.354 µM | 5.21 µM and 1.79 µM
COC(=O)c1cc2c(cc1O)[C@@H](NC(C)=O)CCc1cc(OC)c(OC)c(OC)c1-2 | – | – | – | – | 0.0542 µM | > 100 µM | – | > 100 µM

SMILES | GI50 (BT-549 breast) | TGI (BT-549 breast) | GI50 (T-47D breast) | TGI (T-47D breast) | GI50 (MDA-MB-231 breast) | TGI (MDA-MB-231 breast) | GI50 (MCF7 breast) | TGI (MCF7 breast)
C/C(=C\CCc1ccoc1)CC/C=C(\C)CCCC1=CC(=O)OC1 | 6.24 µM | 25.9 µM | 2.27 µM | 22.9 µM | 5.97 µM | 28.9 µM | 3.47 µM | 36.9 µM
COC(=O)/C=C/c1cc(O)c2oc(-c3ccc(O)c(O)c3)c(C(=O)OC)c2c1 | 1.5 µM | 11.9 µM | 0.577 µM | 9.48 µM | 0.927 µM | 15.8 µM | 0.286 µM | 9.75 µM
Oc1ccc(Cl)cc1Cc1cc(Cl)cc(Cl)c1O | 3.32 µM | 11.9 µM | 2.47 µM | 8.68 µM | 7.92 µM | 48.1 µM | 3.51 µM | 20.3 µM
CC(C)(C)C(=O)OCOP(=O)(OCOC(=O)C(C)(C)C)C1CCCN(O)C1=O (centres undefined) | 0.313 µM | 1.26 µM | 0.543 µM | 17.8 µM | 0.397 µM | 20 µM | 0.338 µM | 3.86 µM
NC(=NCCCOc1ccc(Cl)cc1)Nc1ccc(C(F)(F)F)cc1 | 2.32 µM | 6.31 µM | – | – | – | – | 1.72 µM | 4.85 µM
CC(C)c1ccc(Nc2ccc3c(OCCCN4CCN(C)CC4)cccc3n2)cc1 | 12.3 µM | 28.7 µM | 12.9 µM | 31.6 µM | 2.11 µM | 6.92 µM | 3.21 µM | 15 µM
Ic1ccc(Nc2nc3nonc3nc2Nc2ccc(I)cc2)cc1 | 0.301 µM | 1.36 µM | 0.179 µM | > 91.1 µM | 0.209 µM | 0.641 µM | 0.225 µM | > 100 µM
Clc1coc2nc3ccccc3c(Nc3ccc4c(c3)OCO4)c12 | 5.19 µM | 27 µM | 13.4 µM | > 100 µM | 0.974 µM | 81.3 µM | 1.81 µM | > 100 µM
C=C(C=O)C1CCC2(C(=O)O)CCC3(C)C(CCC4C5(C)CCC(O)C(C)(C)C5CCC43C)C12 (centres undefined) | 1.68 µM | 6.67 µM | 5.19 µM | 34.1 µM | 4.92 µM | 50.4 µM | 2.76 µM | 14.3 µM
Cc1ccc(C(SCC(N)C(=O)O)(c2ccccc2)c2ccc(C)cc2)cc1 (centres undefined) | 0.247 µM | 21.9 µM | 0.333 µM | 16.9 µM | 0.468 µM | 16.1 µM | 0.0524 µM | 15.4 µM
C=C(F)C(=O)N1CCN(c2nc(OC[C@@H]3CCCN3C)nc3c2CCN(c2cccc4cccc(Cl)c24)C3)C[C@@H]1CC#N | 2.19 µM | 4.57 µM | 1.24 µM | 3.07 µM | 0.752 µM | 2.23 µM | 1.05 µM | 2.96 µM
Cn1cc(C2=C(c3ccc4ccccc4c3)C(=O)NC2=O)c2ccccc21 | > 25 µM | > 25 µM | > 25 µM | > 25 µM | > 25 µM | > 25 µM | 2.19 µM | > 25 µM
CC(C)=C[C@@H]1C[C@H](C)[C@H]2CC[C@H](C)C3=C2[C@](O)(OC3=O)[C@]1(C)O | > 100 µM | > 100 µM | > 100 µM | > 100 µM | > 100 µM | > 100 µM | 71.5 µM | > 100 µM
O=C(c1ccccc1)c1cc(Cl)ccc1OCCCCN1CCN(CCCCOc2ccc(Cl)cc2C(=O)c2ccccc2)CC1 | – | – | 4.59 µM | 22.4 µM | 2.4 µM | 5.75 µM | 1.98 µM | 4.83 µM
C[C@H]1c2cccc(O)c2C(O)=C2C(=O)[C@]3(O)C(O)=C(C(N)=O)C(=O)[C@@H](N(C)C)[C@@H]3[C@@H](O)[C@@H]21 | 3.12 µM | 9.88 µM | 3.28 µM | 34.8 µM | 3.39 µM | 13.5 µM | 3.51 µM | 28.2 µM
Cc1ccc(Cl)cc1Nc1nc(C(F)(F)F)ccc1C(=O)N1CCN(c2ccc(F)cc2)CC1 | 12.8 µM | 26.3 µM | 6.25 µM | 42.6 µM | 10.3 µM | 24.4 µM | 11.7 µM | 38.7 µM
O=S(=O)(Nc1cc(F)cc(Cl)c1)c1ccc(-c2cnc(C3CC3)o2)cc1 | 0.933 µM | 18.8 µM | 1.7 µM | 33.5 µM | 4.14 µM | 19.3 µM | 0.485 µM | 23 µM
Cn1c(=O)c2c(nc(Nc3cc(=O)[nH]c(=O)[nH]3)n2Cc2ccccc2)n(C)c1=O | 69.4 µM | > 100 µM | > 100 µM | > 100 µM | > 100 µM | > 100 µM | > 100 µM | > 100 µM
